Test results reported in patent publication US20220373535A1, “METHODS OF IDENTIFICATION OF SYNERGISTIC ANTI-CANCER MULTIDRUG COMBINATIONS AND USES THEREOF” (UNIVERSITE DE GENEVE, priority 2019, published 2022).

Legend:
786-O cells [1] = experiment: in vitro cell viability bioassay measuring cell metabolic activity (CellTiterGlo); assay type: cell-based, human; conditions: for IC20: ED20 (or lower, based on clinically attainable plasma concentrations), highest dose for combinatorial screening; for EC50: 786-0, dose that inhibited 50% of cell viability vs control, 72 h treatment, read-out: ED50 (the source's name)
Protocol: Seeding density was 2-10×10^3cells/well, depending on the cell line's growth characteristics such that the control cells approach confluency at the time of the assay readout. Subsequently, cell viability was assessed using the CellTiterGlo® luminescence assay (Promega, Madison, Wis., USA) and cell viability was reported as the luminescence signal in the treated wells normalized to the signal in the DMSO treated control wells. Dose-response curves and IC50 values were determined in Graphpad Prism® using a four-parameter non-linear fit of the log transformed dose data of each compound.

786-O cells [2] = experiment: mitosis live cell imaging (SiR-tubulin); assay type: cell-based, human; conditions: single drug alone
Protocol: In order to test whether C2 treatment affects cell division, this process was monitored by live cell imaging. 786-O cells were treated with 0.1% DMSO in the cell culture medium (CTRL) or C2 and stained with the live cell dye SiR-tubulin (microtubule marker) to label the mitotic spindle, monitor mitotic progression and detect any cytokinesis failure. All experiments were performed in the presence of Valspodar (4 μM), a multi-drug pump inhibitor that prevented SiR-tubulin removal from the cell (this concentration of Valspodar had no effect on the efficacy of C2). Live cells were recorded for 24 hours at a temporal resolution of 3 minutes (FIG. 7A).
20 points were taken per condition.

COLO-205 cells = experiment: cell metabolic activity assay (CellTitre-Glo), CRC line; assay type: cell-based; conditions: COLO-205, CIN and high centrosome numbers
Protocol: C2 and the individual drugs present in C2 were assayed in a cell metabolic activity assay (CellTitre-Glo) where the bioluminescence was detected, to the following cell panel: two MIN (microsatellite instability) cell lines (HCT-116 and DLD1), two CIN (chromosomal instability) cell lines (SW480 and SW620), COLO205 (CIN and high centrosome numbers), HT29 (CIN and replication stress induced centriole dis-engagement), CCD841 (non-malignant colon cell line; negative control) and 786-O (renal carcinoma cell line; positive control).

Structure (SMILES) | IC20 (786-O cells [1]; Homo sapiens, 786-0, 72 h) [nM] | EC50 (786-O cells [1]; Homo sapiens) [nM] | effect on mitosis duration (786-O cells [2]) | killing / toxicity (cell metabolic activity) (COLO-205 cells) | IC20 (786-O cells [1]) [nM]
Cc1cc(Nc2cc(N3CCN(C)CC3)nc(Sc3ccc(NC(=O)C4CC4)cc3)n2)[nH]n1 [VX-680] | 650 | 33000 |  |  | 
O=C(CCCCCCC(=O)Nc1ccc([C@H]2O[C@@H](CSc3nc(-c4ccccc4)c(-c4ccccc4)o3)C[C@@H](c3ccc(CO)cc3)O2)cc1)NO [tubacin, N-(4-{(2R,4R,6S)-4-{[(4,5-diphenyl-1,3-oxazol-2-yl)sulfanyl]methyl}is [4-(hydroxymethyl)phenyl]-1,3-dioxan-2-yl}phenyl)-N′-hydroxyoctanediamide] | 2000 | 6000 | small delay in mitosis | partial toxicity | 
O=C(CCCCCCC(=O)Nc1ccccc1)NO [SAHA] |  |  |  |  | 1000
CC(=O)Nc1ccc(C(=O)Nc2ccccc2N)cc1 [CI-994, 4-(Acetylamino)-N-(2-aminophenyl)benzamide] | 1000 | 11500 |  |  | 
CNC(=O)c1cc(Oc2ccc(NC(=O)Nc3ccc(Cl)c(C(F)(F)F)c3)cc2)ccn1 [sorafenib] | 10 |  |  |  | 
CNC(=O)c1ccccc1Sc1ccc2c(/C=C/c3ccccn3)n[nH]c2c1 [axitinib] | 200 |  |  |  | 
Cc1nc(Nc2ncc(C(=O)Nc3c(C)cccc3Cl)s2)cc(N2CCN(CCO)CC2)n1 [dasatinib, N-(2-chloro-6-methylphenyl)-2-[[6-[4-(2-hydroxyethyl)piperazin-1-yl]-2-methylpyrimidin-4-yl]amino]-1,3-thiazole-5-carboxamide] | 50 | 100 |  |  | 
C#Cc1cccc(Nc2ncnc3cc(OCCOC)c(OCCOC)cc23)c1 [erlotinib, N-(3-Ethynylphenyl)-6,7-bis(2-methoxyethoxy) quinazolin-4-amine] | 2000 | 6600 | small delay in mitosis |  | 
Cc1[nH]c2ccccc2c1CCNCc1ccc(/C=C/C(=O)NO)cc1 [LBH-589] | 2 | 10 |  |  | 
Cn1c(=O)n(-c2ccc(C(C)(C)C#N)cc2)c2c3cc(-c4cnc5ccccc5c4)ccc3ncc21 [BEZ-235] | 20 | 90 |  |  | 
